In article PMC7026418, “The kinase polypharmacology landscape of clinical PARP inhibitors” (Scientific Reports, 2020):
Read-outs that look alike come from different tables or passages of the source. Each block holds one molecule with its values, some of them ahead of it.

Assays:
Assay in all cases: biochemical
Parameters in all cases: DiscoveRx KINOMEscan active site-directed competition binding; percent of control kinase bound to immobilised ligand
ADCK3 = target: T1, ADCK3 (Homo sapiens, UniProt Q8NI60)
T1 construct: gene COQ8A

ERK1 = target: T2, ERK1 (Homo sapiens, UniProt P27361)
T2 construct: gene MAPK3

MEK6 = target: T3, MEK6 (Homo sapiens, UniProt P52564)
T3 construct: gene MAP2K6
T3 sequence (P52564 1-334): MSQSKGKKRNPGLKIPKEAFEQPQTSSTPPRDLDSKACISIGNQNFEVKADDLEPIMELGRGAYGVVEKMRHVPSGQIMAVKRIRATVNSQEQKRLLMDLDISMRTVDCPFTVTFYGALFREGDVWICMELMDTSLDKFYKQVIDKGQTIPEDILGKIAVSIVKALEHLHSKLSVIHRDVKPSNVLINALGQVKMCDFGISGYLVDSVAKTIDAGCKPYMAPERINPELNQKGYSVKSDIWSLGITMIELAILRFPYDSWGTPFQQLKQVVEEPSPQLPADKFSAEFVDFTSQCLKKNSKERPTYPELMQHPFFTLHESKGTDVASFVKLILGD

GRK2 = target: T4, GRK2 (Homo sapiens, UniProt P25098)
T4 sequence (P25098 1-689): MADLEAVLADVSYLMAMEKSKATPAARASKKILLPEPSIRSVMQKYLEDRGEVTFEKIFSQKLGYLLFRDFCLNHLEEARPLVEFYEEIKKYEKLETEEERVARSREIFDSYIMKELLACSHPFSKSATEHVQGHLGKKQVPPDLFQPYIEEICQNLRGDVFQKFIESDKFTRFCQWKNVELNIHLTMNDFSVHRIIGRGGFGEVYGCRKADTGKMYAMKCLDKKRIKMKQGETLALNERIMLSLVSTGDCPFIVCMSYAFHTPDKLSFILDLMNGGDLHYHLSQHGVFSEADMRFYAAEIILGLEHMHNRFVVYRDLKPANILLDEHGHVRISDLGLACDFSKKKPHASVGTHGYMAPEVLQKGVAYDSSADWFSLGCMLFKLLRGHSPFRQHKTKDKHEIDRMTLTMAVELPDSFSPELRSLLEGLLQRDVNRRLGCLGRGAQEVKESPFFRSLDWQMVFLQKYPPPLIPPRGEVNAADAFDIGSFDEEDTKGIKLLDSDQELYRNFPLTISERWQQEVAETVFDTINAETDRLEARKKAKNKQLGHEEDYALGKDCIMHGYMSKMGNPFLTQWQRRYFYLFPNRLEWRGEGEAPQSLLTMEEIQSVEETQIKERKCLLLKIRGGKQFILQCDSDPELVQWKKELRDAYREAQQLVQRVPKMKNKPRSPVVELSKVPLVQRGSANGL

SBK1 = SBK1 (Homo sapiens, UniProt Q52WX2)
CASK = target: T5, CASK (Homo sapiens, UniProt O14936)
T5 sequence (O14936 1-926): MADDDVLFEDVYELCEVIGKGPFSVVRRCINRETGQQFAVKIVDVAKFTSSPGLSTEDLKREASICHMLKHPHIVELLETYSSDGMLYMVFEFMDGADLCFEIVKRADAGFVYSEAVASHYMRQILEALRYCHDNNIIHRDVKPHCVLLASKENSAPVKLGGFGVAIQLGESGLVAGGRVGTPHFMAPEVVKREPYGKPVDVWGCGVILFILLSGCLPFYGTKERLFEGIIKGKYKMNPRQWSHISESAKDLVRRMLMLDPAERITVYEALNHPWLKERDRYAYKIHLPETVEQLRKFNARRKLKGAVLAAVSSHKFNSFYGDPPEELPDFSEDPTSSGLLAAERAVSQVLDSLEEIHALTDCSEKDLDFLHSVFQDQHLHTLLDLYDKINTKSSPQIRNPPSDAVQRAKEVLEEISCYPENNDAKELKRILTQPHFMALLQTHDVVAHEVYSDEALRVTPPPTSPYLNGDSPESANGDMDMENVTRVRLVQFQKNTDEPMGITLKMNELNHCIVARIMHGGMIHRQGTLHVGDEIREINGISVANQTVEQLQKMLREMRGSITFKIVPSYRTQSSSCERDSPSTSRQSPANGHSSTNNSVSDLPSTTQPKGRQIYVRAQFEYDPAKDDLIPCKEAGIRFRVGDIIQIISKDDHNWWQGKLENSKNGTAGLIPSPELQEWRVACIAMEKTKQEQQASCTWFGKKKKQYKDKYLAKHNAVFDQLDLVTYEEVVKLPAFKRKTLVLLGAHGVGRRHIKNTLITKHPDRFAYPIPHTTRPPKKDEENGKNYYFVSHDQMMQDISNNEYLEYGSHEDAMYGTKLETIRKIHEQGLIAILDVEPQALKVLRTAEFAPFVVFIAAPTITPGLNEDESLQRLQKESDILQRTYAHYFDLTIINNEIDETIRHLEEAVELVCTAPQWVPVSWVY

CLK2 = CLK2 (Homo sapiens, UniProt P49760)
PIK3CA(E545K) = PIK3CA(E545K) (Homo sapiens, UniProt P42336, E545K)
BRAF = BRAF (Homo sapiens, UniProt P15056)
[1] = read-out: Niraparib (MK-4827) / %Ctrl @ 10000nM
[2] = read-out: Rucaparib / %Ctrl @ 10000nM, binding competition, % of control
[3] = read-out: Olaparib / %Ctrl @ 10000nM
[4] = read-out: Talazoparib (BMN 673) / %Ctrl @ 10000nM

T1 sequence (Q8NI60 whole entry): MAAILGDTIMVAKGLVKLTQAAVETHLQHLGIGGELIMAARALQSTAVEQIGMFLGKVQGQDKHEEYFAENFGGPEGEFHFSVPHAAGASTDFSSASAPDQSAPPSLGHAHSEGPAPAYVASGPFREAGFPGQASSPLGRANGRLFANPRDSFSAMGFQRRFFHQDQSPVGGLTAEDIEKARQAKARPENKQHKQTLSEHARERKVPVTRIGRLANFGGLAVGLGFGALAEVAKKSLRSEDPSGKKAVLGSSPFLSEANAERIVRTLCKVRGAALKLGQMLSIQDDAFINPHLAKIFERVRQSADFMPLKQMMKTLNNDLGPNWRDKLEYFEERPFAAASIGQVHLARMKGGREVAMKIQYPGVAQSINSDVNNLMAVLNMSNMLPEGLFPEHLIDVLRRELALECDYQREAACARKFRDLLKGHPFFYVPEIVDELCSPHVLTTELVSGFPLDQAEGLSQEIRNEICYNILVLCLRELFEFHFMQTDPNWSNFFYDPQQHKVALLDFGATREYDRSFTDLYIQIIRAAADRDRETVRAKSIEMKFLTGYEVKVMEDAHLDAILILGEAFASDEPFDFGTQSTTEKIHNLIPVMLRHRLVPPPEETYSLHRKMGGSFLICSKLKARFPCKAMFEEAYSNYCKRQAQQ
Chain of BRAF (P15056 whole entry): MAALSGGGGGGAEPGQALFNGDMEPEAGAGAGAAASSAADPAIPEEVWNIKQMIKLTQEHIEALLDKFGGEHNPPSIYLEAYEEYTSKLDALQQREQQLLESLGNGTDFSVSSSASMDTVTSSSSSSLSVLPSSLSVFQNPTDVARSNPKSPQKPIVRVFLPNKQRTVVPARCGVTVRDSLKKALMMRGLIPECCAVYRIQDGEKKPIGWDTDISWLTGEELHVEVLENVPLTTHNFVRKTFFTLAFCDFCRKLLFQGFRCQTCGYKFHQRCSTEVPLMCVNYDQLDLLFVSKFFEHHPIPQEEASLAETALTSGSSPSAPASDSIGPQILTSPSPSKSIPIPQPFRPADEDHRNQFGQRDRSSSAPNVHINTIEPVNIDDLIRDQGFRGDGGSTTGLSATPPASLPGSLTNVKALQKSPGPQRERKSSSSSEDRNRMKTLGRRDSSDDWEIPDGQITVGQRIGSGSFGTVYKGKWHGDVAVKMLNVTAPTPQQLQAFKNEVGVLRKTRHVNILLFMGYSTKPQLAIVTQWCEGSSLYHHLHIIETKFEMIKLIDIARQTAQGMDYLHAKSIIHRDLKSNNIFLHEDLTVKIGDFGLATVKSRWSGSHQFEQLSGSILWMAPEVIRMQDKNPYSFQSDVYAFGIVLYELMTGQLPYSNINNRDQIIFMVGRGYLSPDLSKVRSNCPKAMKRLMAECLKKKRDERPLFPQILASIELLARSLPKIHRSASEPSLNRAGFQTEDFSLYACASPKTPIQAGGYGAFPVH
T2 sequence (P27361 whole entry): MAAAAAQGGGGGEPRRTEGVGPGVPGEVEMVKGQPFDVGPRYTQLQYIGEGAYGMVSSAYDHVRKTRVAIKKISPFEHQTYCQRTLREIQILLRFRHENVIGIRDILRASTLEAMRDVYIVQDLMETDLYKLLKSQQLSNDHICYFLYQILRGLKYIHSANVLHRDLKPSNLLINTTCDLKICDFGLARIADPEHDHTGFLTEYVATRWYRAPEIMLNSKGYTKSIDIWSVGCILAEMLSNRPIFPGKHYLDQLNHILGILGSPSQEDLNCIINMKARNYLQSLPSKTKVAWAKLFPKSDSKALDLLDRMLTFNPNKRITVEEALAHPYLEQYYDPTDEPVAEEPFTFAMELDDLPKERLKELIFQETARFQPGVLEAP
Chain of PIK3CA(E545K) (P42336 whole entry E545K): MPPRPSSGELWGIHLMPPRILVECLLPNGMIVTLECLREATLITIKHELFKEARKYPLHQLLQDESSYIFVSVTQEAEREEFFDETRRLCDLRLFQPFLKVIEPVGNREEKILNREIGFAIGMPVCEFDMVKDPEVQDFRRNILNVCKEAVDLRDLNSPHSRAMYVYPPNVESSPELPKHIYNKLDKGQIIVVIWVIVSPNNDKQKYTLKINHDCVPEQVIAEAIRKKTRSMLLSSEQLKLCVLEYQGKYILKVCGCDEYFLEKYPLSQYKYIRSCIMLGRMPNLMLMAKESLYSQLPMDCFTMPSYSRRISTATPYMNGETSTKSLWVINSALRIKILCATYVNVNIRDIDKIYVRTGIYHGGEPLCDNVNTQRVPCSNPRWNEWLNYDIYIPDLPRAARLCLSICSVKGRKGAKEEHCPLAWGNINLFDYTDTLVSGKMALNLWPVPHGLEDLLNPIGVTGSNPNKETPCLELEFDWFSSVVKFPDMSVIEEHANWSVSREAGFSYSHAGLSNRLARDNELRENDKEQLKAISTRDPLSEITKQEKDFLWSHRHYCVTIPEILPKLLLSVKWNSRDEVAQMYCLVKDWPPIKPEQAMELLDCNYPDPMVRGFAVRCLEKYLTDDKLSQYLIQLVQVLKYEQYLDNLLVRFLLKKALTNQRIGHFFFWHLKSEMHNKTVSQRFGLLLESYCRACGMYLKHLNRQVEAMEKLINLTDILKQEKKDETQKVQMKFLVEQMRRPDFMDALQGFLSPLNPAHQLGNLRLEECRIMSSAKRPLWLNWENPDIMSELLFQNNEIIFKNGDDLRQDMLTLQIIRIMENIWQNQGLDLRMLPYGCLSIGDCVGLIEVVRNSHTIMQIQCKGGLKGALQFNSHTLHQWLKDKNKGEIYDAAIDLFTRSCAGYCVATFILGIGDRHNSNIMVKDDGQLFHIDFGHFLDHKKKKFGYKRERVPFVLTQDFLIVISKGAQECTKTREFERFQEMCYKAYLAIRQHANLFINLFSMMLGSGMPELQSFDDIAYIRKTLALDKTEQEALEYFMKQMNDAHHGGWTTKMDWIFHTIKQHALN
Chain of SBK1 (Q52WX2 whole entry): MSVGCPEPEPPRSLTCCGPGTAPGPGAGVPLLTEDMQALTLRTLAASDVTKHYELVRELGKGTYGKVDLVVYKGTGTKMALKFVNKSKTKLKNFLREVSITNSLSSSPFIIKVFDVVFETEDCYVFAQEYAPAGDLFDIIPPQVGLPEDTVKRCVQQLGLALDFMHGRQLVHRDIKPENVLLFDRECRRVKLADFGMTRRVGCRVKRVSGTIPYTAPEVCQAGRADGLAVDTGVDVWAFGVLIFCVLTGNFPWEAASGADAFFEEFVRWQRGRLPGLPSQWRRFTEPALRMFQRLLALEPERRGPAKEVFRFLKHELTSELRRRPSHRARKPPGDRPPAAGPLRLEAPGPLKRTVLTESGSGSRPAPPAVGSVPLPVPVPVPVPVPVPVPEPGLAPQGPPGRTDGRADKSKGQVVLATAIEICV
Chain of CLK2 (P49760 whole entry): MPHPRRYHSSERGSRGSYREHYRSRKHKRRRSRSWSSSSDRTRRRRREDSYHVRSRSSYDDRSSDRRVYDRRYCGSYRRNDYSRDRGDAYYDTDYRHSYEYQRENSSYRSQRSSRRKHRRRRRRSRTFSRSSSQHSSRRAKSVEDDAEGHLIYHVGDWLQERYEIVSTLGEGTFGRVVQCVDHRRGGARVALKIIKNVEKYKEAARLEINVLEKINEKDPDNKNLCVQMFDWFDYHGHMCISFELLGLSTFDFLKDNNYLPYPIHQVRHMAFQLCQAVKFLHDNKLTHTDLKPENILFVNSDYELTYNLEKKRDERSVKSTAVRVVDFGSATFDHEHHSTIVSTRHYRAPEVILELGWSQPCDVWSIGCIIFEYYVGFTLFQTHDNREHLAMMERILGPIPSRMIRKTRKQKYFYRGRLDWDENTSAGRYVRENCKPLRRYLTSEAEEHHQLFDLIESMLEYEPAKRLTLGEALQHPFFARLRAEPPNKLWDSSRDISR

SMILES: NC(=O)c1cccc2cn(-c3ccc([C@@H]4CCCNC4)cc3)nc12 [Niraparib]
percent of control binding at 10 µM (ADCK3; [1]): 57%
percent of control binding at 10 µM (ERK1; [1]): 98%
percent of control binding at 10 µM (MEK6; [1]): 95%
percent of control binding at 10 µM (GRK2; [1]): 97%
percent of control binding at 10 µM (SBK1; [1]): 83%
percent of control binding at 10 µM (CASK; [1]): 93%
percent of control binding at 10 µM (CLK2; [1]): 36%
percent of control binding at 10 µM (PIK3CA(E545K); [1]): 95%
percent of control binding at 10 µM (BRAF; [1]): 95%

percent of control binding at 10 µM (ADCK3; [2]): 69%
percent of control binding at 10 µM (ERK1; [2]): 100%
percent of control binding at 10 µM (MEK6; [2]): 81%
percent of control binding at 10 µM (GRK2; [2]): 70%
percent of control binding at 10 µM (SBK1; [2]): 65%
percent of control binding at 10 µM (CASK; [2]): 83%
percent of control binding at 10 µM (CLK2; [2]): 32%
percent of control binding at 10 µM (PIK3CA(E545K); [2]): 79%
percent of control binding at 10 µM (BRAF; [2]): 66%
SMILES: CNCc1ccc(-c2[nH]c3cc(F)cc4c3c2CCNC4=O)cc1 [Rucaparib]

percent of control binding at 10 µM (ADCK3; [3]): 99%
percent of control binding at 10 µM (ERK1; [3]): 98%
percent of control binding at 10 µM (MEK6; [3]): 86%
percent of control binding at 10 µM (GRK2; [3]): 79%
percent of control binding at 10 µM (SBK1; [3]): 95%
percent of control binding at 10 µM (CASK; [3]): 78%
percent of control binding at 10 µM (CLK2; [3]): 100%
percent of control binding at 10 µM (PIK3CA(E545K); [3]): 86%
percent of control binding at 10 µM (BRAF; [3]): 76%
SMILES: O=C(c1cc(Cc2n[nH]c(=O)c3ccccc23)ccc1F)N1CCN(C(=O)C2CC2)CC1 [Olaparib]

percent of control binding at 10 µM (ADCK3; [4]): 100%
percent of control binding at 10 µM (ERK1; [4]): 87%
percent of control binding at 10 µM (MEK6; [4]): 83%
percent of control binding at 10 µM (GRK2; [4]): 100%
percent of control binding at 10 µM (SBK1; [4]): 96%
percent of control binding at 10 µM (CASK; [4]): 79%
percent of control binding at 10 µM (CLK2; [4]): 94%
percent of control binding at 10 µM (PIK3CA(E545K); [4]): 56%
percent of control binding at 10 µM (BRAF; [4]): 67%
SMILES: Cn1ncnc1[C@H]1c2n[nH]c(=O)c3cc(F)cc(c23)N[C@@H]1c1ccc(F)cc1 [Talazoparib]
